In patent US7612065B2, “Inhibitors of c-JUN N-terminal kinases (JNK)” (priority 2007, dated 2009):

target: T1, JNK3 (Homo sapiens, UniProt P53779); test: JNK inhibition assay: spectrophotometric coupled-enzyme assay with activated JNK3; type: biochemical; conditions: activated JNK3 10 nM, 10 μM ATP, 200 μM EGF receptor peptide, 30° C., competitive inhibition model
T1 construct: One such construct encodes amino acid residues Ser40-Glu402 of JNK3α1 and is preceded by Met and Gly residues; Met-Gly (initiation methionine plus glycine added for the NcoI site); made in house; host or cells: E. coli BL21 (DE3)
Procedure, shortened: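 Activated (doubly phosphorylated, MKK7(DD)-activated) human JNK3, 10 nM, preincubated 10 min at 30 °C with inhibitor in 0.1 M HEPES pH 7.5, 10 mM MgCl2, 200 μM EGF receptor peptide, PK/LDH-coupled. Started with 10 μM ATP; A340 decrease followed at 30 °C. Ki from competitive inhibition model fit.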

T1 sequence (P53779 40-402): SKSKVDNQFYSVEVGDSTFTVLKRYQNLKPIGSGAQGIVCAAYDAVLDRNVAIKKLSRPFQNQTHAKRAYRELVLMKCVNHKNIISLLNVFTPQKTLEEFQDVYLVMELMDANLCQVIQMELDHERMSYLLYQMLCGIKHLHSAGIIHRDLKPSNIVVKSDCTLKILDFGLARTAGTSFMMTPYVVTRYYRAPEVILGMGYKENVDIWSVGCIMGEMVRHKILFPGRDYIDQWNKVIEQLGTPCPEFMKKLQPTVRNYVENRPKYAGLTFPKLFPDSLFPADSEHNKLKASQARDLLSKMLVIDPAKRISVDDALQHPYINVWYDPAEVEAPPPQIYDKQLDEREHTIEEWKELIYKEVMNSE

Row | Ki | SMILES
1 | < 1 µM | O=C(Nc1ccc2c(c1)N(Cc1cc(F)cc3c1OCOC3)C(=O)/C2=N\O)N1CCOCC1 [Compound 269]
2 | < 1 µM | O=C1/C(=N\O)c2cc(Br)ccc2N1Cc1cc(F)cc2c1OCOC2 [Compound 278]
3 | ≥ 1 µM | CC(=O)Nc1cccc(-c2ccc3c(c2)/C(=N/O)C(=O)N3Cc2cc(F)cc3c2OCOC3)c1 [Compound 279]
4 | ≥ 1 µM | Nc1cccc(-c2ccc3c(c2)/C(=N/O)C(=O)N3Cc2cc(F)cc3c2OCOC3)c1 [Compound 280]
5 | ≥ 1 µM | O=C1/C(=N\O)c2cc(-c3cccnc3)ccc2N1Cc1cc(F)cc2c1OCOC2 [Compound 281]
6 | ≥ 1 µM | Nc1cccc2c1/C(=N/O)C(=O)N2Cc1cc(F)cc2c1OCOC2 [Compound 282]
7 | ≥ 1 µM | O=C1/C(=N\O)c2cc(-c3ccc(CO)cc3)ccc2N1Cc1cc(F)cc2c1OCOC2 [Compound 283]
8 | ≥ 1 µM | O=C1/C(=N\O)c2cc([N+](=O)[O-])ccc2N1Cc1cc(F)cc2c1OCOC2 [Compound 284]
9 | ≥ 1 µM | Nc1ccc2c(c1)/C(=N/O)C(=O)N2Cc1cc(F)cc2c1OCOC2 [Compound 285]
10 | < 1 µM | O=C1/C(=N\O)c2c(F)cc(F)cc2N1Cc1cc(F)cc2c1OCOC2 [Compound 286]
11 | ≥ 1 µM | CC(C)CNC(=O)c1ccc2c(c1)N(Cc1cc(F)cc3c1OCOC3)C(=O)/C2=N\O [Compound 287]
12 | ≥ 1 µM | COC(=O)CNC(=O)c1ccc2c(c1)N(Cc1cc(F)cc3c1OCOC3)C(=O)/C2=N\O [Compound 288]
13 | ≥ 1 µM | O=C(NCCN1CCCC1)c1ccc2c(c1)N(Cc1cc(F)cc3c1OCOC3)C(=O)/C2=N\O [Compound 289]
14 | ≥ 1 µM | O=C(NCC1CCCO1)c1ccc2c(c1)N(Cc1cc(F)cc3c1OCOC3)C(=O)/C2=N\O (centres unmarked) [Compound 290]
15 | ≥ 1 µM | CCNC(=O)c1ccc2c(c1)N(Cc1cc(F)cc3c1OCOC3)C(=O)/C2=N\O [Compound 291]
16 | ≥ 1 µM | O=C(NCCc1c[nH]cn1)c1ccc2c(c1)N(Cc1cc(F)cc3c1OCOC3)C(=O)/C2=N\O [Compound 292]
17 | ≥ 1 µM | CCCNC(=O)c1ccc2c(c1)N(Cc1cc(F)cc3c1OCOC3)C(=O)/C2=N\O [Compound 293]
18 | ≥ 1 µM | CC(C)CCNC(=O)c1ccc2c(c1)N(Cc1cc(F)cc3c1OCOC3)C(=O)/C2=N\O [Compound 294]
19 | ≥ 1 µM | CN(C)CCNC(=O)c1ccc2c(c1)N(Cc1cc(F)cc3c1OCOC3)C(=O)/C2=N\O [Compound 295]
20 | ≥ 1 µM | CCOC(=O)CCNC(=O)c1ccc2c(c1)N(Cc1cc(F)cc3c1OCOC3)C(=O)/C2=N\O [Compound 296]
21 | ≥ 1 µM | CN1CCCC1CCNC(=O)c1ccc2c(c1)N(Cc1cc(F)cc3c1OCOC3)C(=O)/C2=N\O (centres unmarked) [Compound 297]
22 | ≥ 1 µM | O=C(NCCN1CCCCC1)c1ccc2c(c1)N(Cc1cc(F)cc3c1OCOC3)C(=O)/C2=N\O [Compound 298]
23 | ≥ 1 µM | C[Si](C)(C)C#Cc1cccc2c1/C(=N/O)C(=O)N2Cc1cc(F)cc2c1OCOC2 [Compound 299]
24 | ≥ 1 µM | O=C1/C(=N\O)c2cc(NCc3ccccc3)ccc2N1Cc1cc(F)cc2c1OCOC2 [Compound 300]
25 | < 1 µM | Cc1cccc2c1/C(=N/O)C(=O)N2Cc1cc(F)cc2c1OCOC2 [Compound 301]

Row | Ki | SMILES
26 | ≥ 1 µM | O=C(c1ccccc1)c1ccc2c(c1)/C(=N/O)C(=O)N2Cc1cc(F)cc2c1OCOC2 [Compound 302]
27 | ≥ 1 µM | O=C(O)c1ccc(CNc2ccc3c(c2)/C(=N/O)C(=O)N3Cc2cc(F)cc3c2OCOC3)cc1 [Compound 303]
28 | ≥ 1 µM | O=C1/C(=N\O)c2cc(NCc3ccc(O)cc3)ccc2N1Cc1cc(F)cc2c1OCOC2 [Compound 304]
29 | ≥ 1 µM | COc1ccc(CNc2ccc3c(c2)/C(=N/O)C(=O)N3Cc2cc(F)cc3c2OCOC3)cc1O [Compound 305]
30 | ≥ 1 µM | O=C1/C(=N\O)c2c(CCc3ccccc3)cccc2N1Cc1cc(F)cc2c1OCOC2 [Compound 306]
31 | < 1 µM | C=Cc1cccc2c1/C(=N/O)C(=O)N2Cc1cc(F)cc2c1OCOC2 [Compound 307]
32 | ≥ 1 µM | CC(C)CCN(CCC(C)C)c1ccc2c(c1)/C(=N/O)C(=O)N2Cc1cc(F)cc2c1OCOC2 [Compound 308]
33 | ≥ 1 µM | O=C(O)CCCN(CCCC(=O)O)c1ccc2c(c1)/C(=N/O)C(=O)N2Cc1cc(F)cc2c1OCOC2 [Compound 309]
34 | ≥ 1 µM | O=C1/C(=N\O)c2cc(N(CC3CCCCC3)CC3CCCCC3)ccc2N1Cc1cc(F)cc2c1OCOC2 [Compound 310]
35 | ≥ 1 µM | CC(C)CNc1ccc2c(c1)/C(=N/O)C(=O)N2Cc1cc(F)cc2c1OCOC2 [Compound 311]
36 | ≥ 1 µM | O=C1/C(=N\O)c2cc(N(CCCc3ccccc3)CCCc3ccccc3)ccc2N1Cc1cc(F)cc2c1OCOC2 [Compound 312]
37 | < 1 µM | O=C1/C(=N\O)c2ccc(-c3ccc(F)cc3F)cc2N1Cc1cc(F)cc2c1OCOC2 [Compound 313]
38 | ≥ 1 µM | O=C1/C(=N\O)c2ccc(-c3ccccc3C(F)(F)F)cc2N1Cc1cc(F)cc2c1OCOC2 [Compound 314]
39 | < 1 µM | O=Cc1ccccc1-c1ccc2c(c1)N(Cc1cc(F)cc3c1OCOC3)C(=O)/C2=N\O [Compound 315]
40 | < 1 µM | Cc1ccccc1-c1ccc2c(c1)N(Cc1cc(F)cc3c1OCOC3)C(=O)/C2=N\O [Compound 316]
41 | < 1 µM | CC(=O)Nc1cccc(-c2ccc3c(c2)N(Cc2cc(F)cc4c2OCOC4)C(=O)/C3=N\O)c1 [Compound 317]
42 | < 1 µM | O=C1/C(=N\O)c2ccc(-c3cc4ccccc4o3)cc2N1Cc1cc(F)cc2c1OCOC2 [Compound 318]
43 | < 1 µM | Cc1cc(F)ccc1C(=O)c1ccc2c(c1)/C(=N/O)C(=O)N2Cc1cc(F)cc2c1OCOC2 [Compound 319]
44 | ≥ 1 µM | O=C(Nc1ccc2c(c1)N(Cc1cc(F)cc3c1OCOC3)C(=O)/C2=N/O)c1cccc(Oc2ccccc2)c1 [Compound 320]
45 | < 1 µM | COc1ccc(C(=O)Nc2ccc3c(c2)N(Cc2cc(F)cc4c2OCOC4)C(=O)/C3=N/O)cc1OCc1ccccc1 [Compound 321]
46 | ≥ 1 µM | CC(=O)OC(C(=O)Nc1ccc2c(c1)N(Cc1cc(F)cc3c1OCOC3)C(=O)/C2=N/O)c1ccccc1 (centres unmarked) [Compound 322]
47 | < 1 µM | CCC(C(=O)Nc1ccc2c(c1)N(Cc1cc(F)cc3c1OCOC3)C(=O)/C2=N/O)c1ccccc1 (centres unmarked) [Compound 323]
48 | ≥ 1 µM | COc1ccc(CC(=O)Nc2ccc3c(c2)N(Cc2cc(F)cc4c2OCOC4)C(=O)/C3=N/O)cc1OC [Compound 324]
49 | ≥ 1 µM | CCc1cccc2c1/C(=N/O)C(=O)N2Cc1cc(F)cc2c1OCOC2 [Compound 325]
50 | < 1 µM | C/C=C/c1cccc2c1/C(=N/O)C(=O)N2Cc1cc(F)cc2c1OCOC2 [Compound 326]

Row | Ki | SMILES
51 | < 1 µM | Nc1cccc(-c2ccc3c(c2)N(Cc2cc(F)cc4c2OCOC4)C(=O)/C3=N\O)c1 [Compound 327]
52 | ≥ 1 µM | O=C(c1ccc(F)cc1)c1ccc2c(c1)/C(=N/O)C(=O)N2Cc1cc(F)cc2c1OCOC2 [Compound 328]
53 | ≥ 1 µM | COc1ccc(-c2ccc3c(c2)N(Cc2cc(F)cc4c2OCOC4)C(=O)/C3=N\O)cc1 [Compound 329]
54 | < 1 µM | CC(=O)c1ccc(-c2ccc3c(c2)N(Cc2cc(F)cc4c2OCOC4)C(=O)/C3=N\O)cc1 [Compound 330]
55 | < 1 µM | Cc1ccc(-c2ccc3c(c2)N(Cc2cc(F)cc4c2OCOC4)C(=O)/C3=N\O)cc1C [Compound 331]
56 | < 1 µM | COc1ccc(-c2ccc3c(c2)N(Cc2cc(F)cc4c2OCOC4)C(=O)/C3=N\O)cc1OC [Compound 332]
57 | ≥ 1 µM | Cc1ccc(-c2ccc3c(c2)N(Cc2cc(F)cc4c2OCOC4)C(=O)/C3=N\O)cc1 [Compound 333]
58 | ≥ 1 µM | CC(C)c1ccc(-c2ccc3c(c2)N(Cc2cc(F)cc4c2OCOC4)C(=O)/C3=N\O)cc1 [Compound 334]
59 | < 1 µM | O=C(O)CCc1ccc(-c2ccc3c(c2)N(Cc2cc(F)cc4c2OCOC4)C(=O)/C3=N\O)cc1 [Compound 335]
60 | < 1 µM | CC(C)=Cc1cccc2c1/C(=N/O)C(=O)N2Cc1cc(F)cc2c1OCOC2 [Compound 336]
61 | < 1 µM | CCCCc1cccc2c1/C(=N/O)C(=O)N2Cc1cc(F)cc2c1OCOC2 [Compound 337]
62 | ≥ 1 µM | COc1ccc(C(=O)Nc2ccc3c(c2)N(Cc2cc(F)cc4c2OCOC4)C(=O)/C3=N\O)cc1 [Compound 338]
63 | ≥ 1 µM | COc1ccc(C(=O)Nc2ccc3c(c2)N(Cc2cc(F)cc4c2OCOC4)C(=O)/C3=N\O)cc1OC [Compound 339]
64 | ≥ 1 µM | COc1cccc(OC)c1C(=O)Nc1ccc2c(c1)N(Cc1cc(F)cc3c1OCOC3)C(=O)/C2=N\O [Compound 340]
65 | < 1 µM | O=C(Nc1ccc2c(c1)N(Cc1cc(F)cc3c1OCOC3)C(=O)/C2=N\O)c1ccccc1F [Compound 341]
66 | < 1 µM | O=C(Nc1ccc2c(c1)N(Cc1cc(F)cc3c1OCOC3)C(=O)/C2=N\O)c1ccccc1Cl [Compound 342]
67 | < 1 µM | O=C(Nc1ccc2c(c1)N(Cc1cc(F)cc3c1OCOC3)C(=O)/C2=N\O)c1ccccc1Br [Compound 343]
68 | < 1 µM | CCC(=O)Nc1ccc2c(c1)N(Cc1cc(F)cc3c1OCOC3)C(=O)/C2=N\O [Compound 344]
69 | < 1 µM | CC(C)CC(=O)Nc1ccc2c(c1)N(Cc1cc(F)cc3c1OCOC3)C(=O)/C2=N\O [Compound 345]
70 | ≥ 1 µM | O=C(Nc1ccc2c(c1)N(Cc1cc(F)cc3c1OCOC3)C(=O)/C2=N\O)C1CCCCC1 [Compound 346]
71 | ≥ 1 µM | CC(=O)NCC(=O)NCC(=O)Nc1ccc2c(c1)N(Cc1cc(F)cc3c1OCOC3)C(=O)/C2=N\O [Compound 347]
72 | ≥ 1 µM | CC(=O)NCC(=O)Nc1ccc2c(c1)N(Cc1cc(F)cc3c1OCOC3)C(=O)/C2=N\O [Compound 348]
73 | ≥ 1 µM | Cc1ccc(C(=O)c2ccc3c(c2)/C(=N/O)C(=O)N3Cc2cc(F)cc3c2OCOC3)cc1 [Compound 349]
74 | ≥ 1 µM | Cc1cc2c(cc1C(=O)c1ccccc1)/C(=N/O)C(=O)N2Cc1cc(F)cc2c1OCOC2 [Compound 351]
